Measured values published in the kinase profiling compilation of Christmann-Franck et al. (2016).

Assays:
Assay in all cases: radiometric filter-binding kinase assay, Kinase HotSpot
Details in all cases: compound 0.5 µM; ATP 10 µM
DCLK2 (human) = DCLK2 (human) (UniProt Q8N568)
SRPK3 (human) = SRPK3 (human) (UniProt Q9UPE1)
STK16 (human) = STK16 (human) (UniProt O75716)
CDK9 CCNK (human) = CDK9 CCNK (human) (UniProt O75909+P50750)
PKN2 (human) = PKN2 (human) (UniProt Q16513)
BRSK1 (human) = BRSK1 (human) (UniProt Q8TDC3)
NEK11 (human) = NEK11 (human) (UniProt Q8NG66)
CDK5 CDK5R1 p25 (human) = CDK5 CDK5R1 p25 (human) (UniProt Q00535+Q15078)
EPHA7 (human) = EPHA7 (human) (UniProt Q15375)
SIK2 (human) = SIK2 (human) (UniProt Q9H0K1)
CLK1 (human) = CLK1 (human) (UniProt P49759)
ADRBK1 (human) = ADRBK1 (human) (UniProt P25098)
MAPK1 (human) = MAPK1 (human) (UniProt P28482)
ABL2 (human) = ABL2 (human) (UniProt P42684)
YES1 (human) = YES1 (human) (UniProt P07947)
AURKA (human) = AURKA (human) (UniProt O14965)
ACVR1 (human) = ACVR1 (human) (UniProt Q04771)
MYLK2 (human) = MYLK2 (human) (UniProt Q9H1R3)
HIPK3 (human) = HIPK3 (human) (UniProt Q9H422)
OXSR1 (human) = OXSR1 (human) (UniProt O95747)
INSR (human) = INSR (human) (UniProt P06213)
PDGFRB (human) = PDGFRB (human) (UniProt P09619)
BMX (human) = BMX (human) (UniProt P51813)
STK17A (human) = STK17A (human) (UniProt Q9UEE5)
MAPK11 (human) = MAPK11 (human) (UniProt Q15759)
MARK4 (human) = MARK4 (human) (UniProt Q96L34)
DMPK (human) = DMPK (human) (UniProt Q09013)
EPHB1 (human) = EPHB1 (human) (UniProt P54762)
PRKD2 (human) = PRKD2 (human) (UniProt Q9BZL6)
PRKD3 (human) = PRKD3 (human) (UniProt O94806)
STK4 (human) = STK4 (human) (UniProt Q13043)
[1] = system: MKNK1 (human), Q9BUB5 [T385D; 165-205 del]
CSNK1G3 (human) = CSNK1G3 (human) (UniProt Q9Y6M4)
CDK5 CDK5R1 p35 (human) = CDK5 CDK5R1 p35 (human) (UniProt Q00535+Q15078)
MAP3K9 (human) = MAP3K9 (human) (UniProt P80192)
MET (human) = MET (human) (UniProt P08581)
FER (human) = FER (human) (UniProt P16591)
DYRK1B (human) = DYRK1B (human) (UniProt Q9Y463)
SGK3 (human) = SGK3 (human) (UniProt Q96BR1)
IKBKB (human) = IKBKB (human) (UniProt O14920)
NEK3 (human) = NEK3 (human) (UniProt P51956)
EPHB3 (human) = EPHB3 (human) (UniProt P54753)
EPHB3 (human), sequence (P54753 whole entry, looked up): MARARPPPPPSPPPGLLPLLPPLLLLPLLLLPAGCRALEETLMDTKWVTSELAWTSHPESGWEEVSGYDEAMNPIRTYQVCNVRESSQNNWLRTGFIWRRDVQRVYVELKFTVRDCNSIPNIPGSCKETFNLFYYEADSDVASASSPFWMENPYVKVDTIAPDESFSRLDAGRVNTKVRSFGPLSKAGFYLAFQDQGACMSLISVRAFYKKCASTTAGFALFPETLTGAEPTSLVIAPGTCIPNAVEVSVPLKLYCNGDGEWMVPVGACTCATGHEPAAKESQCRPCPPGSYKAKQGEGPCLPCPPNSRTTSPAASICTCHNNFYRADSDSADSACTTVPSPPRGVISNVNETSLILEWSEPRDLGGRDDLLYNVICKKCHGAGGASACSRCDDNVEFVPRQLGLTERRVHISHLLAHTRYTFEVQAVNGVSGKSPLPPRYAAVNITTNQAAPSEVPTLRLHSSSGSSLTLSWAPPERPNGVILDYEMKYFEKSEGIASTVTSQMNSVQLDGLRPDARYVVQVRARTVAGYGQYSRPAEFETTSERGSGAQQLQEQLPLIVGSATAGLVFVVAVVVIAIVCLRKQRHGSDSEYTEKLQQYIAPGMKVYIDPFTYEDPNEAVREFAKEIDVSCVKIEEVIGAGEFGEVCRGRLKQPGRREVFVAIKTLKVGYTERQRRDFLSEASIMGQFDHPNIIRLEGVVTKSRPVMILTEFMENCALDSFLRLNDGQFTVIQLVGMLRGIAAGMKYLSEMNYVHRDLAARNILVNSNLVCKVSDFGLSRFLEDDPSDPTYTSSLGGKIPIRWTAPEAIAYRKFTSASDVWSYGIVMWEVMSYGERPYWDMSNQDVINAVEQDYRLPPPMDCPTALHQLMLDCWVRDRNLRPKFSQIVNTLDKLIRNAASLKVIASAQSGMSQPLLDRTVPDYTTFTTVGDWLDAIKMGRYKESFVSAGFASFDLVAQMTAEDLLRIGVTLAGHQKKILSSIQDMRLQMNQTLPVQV

PRKD2 (human), sequence (Q9BZL6 whole entry, looked up): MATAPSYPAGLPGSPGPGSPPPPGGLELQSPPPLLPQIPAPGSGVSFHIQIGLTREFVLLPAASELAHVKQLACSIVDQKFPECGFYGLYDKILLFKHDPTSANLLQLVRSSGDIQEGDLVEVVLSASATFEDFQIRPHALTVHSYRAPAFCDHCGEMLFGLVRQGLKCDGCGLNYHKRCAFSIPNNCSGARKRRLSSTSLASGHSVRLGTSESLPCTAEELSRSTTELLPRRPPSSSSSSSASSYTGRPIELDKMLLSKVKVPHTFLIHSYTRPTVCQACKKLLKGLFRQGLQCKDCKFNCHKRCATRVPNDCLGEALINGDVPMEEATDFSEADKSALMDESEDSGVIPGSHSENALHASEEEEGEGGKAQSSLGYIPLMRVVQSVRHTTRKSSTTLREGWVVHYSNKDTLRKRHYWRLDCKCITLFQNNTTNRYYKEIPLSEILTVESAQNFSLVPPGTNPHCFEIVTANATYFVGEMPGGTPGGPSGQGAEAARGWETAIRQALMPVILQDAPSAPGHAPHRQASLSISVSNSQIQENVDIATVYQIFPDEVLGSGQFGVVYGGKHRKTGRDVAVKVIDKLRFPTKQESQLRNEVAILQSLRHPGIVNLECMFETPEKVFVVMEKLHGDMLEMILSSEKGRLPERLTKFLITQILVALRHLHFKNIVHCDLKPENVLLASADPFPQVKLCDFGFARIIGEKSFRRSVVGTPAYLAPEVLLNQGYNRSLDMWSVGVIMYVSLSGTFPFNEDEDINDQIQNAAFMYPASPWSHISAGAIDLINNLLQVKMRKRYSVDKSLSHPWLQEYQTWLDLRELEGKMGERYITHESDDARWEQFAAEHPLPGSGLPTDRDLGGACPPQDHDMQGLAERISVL
CDK5 CDK5R1 p25 (human), sequence (Q00535 whole entry, looked up): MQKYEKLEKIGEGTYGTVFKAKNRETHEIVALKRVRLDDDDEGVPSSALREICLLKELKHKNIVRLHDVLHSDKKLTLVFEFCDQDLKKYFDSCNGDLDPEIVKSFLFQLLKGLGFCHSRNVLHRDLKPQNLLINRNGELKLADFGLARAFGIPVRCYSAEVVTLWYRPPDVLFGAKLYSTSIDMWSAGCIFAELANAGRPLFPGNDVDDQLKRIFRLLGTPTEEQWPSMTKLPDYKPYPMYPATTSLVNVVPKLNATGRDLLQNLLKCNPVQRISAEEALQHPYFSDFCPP
CDK5 CDK5R1 p25 (human), sequence (Q15078 whole entry, looked up): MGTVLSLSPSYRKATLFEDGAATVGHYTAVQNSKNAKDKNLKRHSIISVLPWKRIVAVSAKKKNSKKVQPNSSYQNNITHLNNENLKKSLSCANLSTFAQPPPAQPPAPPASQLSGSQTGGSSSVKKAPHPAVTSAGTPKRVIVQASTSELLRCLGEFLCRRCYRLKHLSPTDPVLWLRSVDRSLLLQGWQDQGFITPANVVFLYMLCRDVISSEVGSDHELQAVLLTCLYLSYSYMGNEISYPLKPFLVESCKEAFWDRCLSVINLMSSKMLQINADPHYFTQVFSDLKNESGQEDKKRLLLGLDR
NEK11 (human), sequence (Q8NG66 whole entry, looked up): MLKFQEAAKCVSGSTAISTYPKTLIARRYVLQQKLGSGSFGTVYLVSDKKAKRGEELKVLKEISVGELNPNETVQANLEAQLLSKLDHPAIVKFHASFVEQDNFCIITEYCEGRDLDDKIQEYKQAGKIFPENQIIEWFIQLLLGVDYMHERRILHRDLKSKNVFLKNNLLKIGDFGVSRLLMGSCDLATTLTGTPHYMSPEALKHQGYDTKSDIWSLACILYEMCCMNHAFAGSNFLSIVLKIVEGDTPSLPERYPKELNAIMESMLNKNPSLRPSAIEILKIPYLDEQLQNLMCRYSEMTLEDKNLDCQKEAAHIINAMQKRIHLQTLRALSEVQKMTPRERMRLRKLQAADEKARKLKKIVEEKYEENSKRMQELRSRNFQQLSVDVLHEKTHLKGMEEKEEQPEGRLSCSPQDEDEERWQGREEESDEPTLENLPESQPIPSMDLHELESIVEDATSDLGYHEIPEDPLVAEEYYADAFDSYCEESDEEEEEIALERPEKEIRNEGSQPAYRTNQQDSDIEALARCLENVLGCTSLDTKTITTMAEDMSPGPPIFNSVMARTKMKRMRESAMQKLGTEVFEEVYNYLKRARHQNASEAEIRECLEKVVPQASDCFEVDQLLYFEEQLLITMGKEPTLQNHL
EPHB1 (human), sequence (P54762 whole entry, looked up): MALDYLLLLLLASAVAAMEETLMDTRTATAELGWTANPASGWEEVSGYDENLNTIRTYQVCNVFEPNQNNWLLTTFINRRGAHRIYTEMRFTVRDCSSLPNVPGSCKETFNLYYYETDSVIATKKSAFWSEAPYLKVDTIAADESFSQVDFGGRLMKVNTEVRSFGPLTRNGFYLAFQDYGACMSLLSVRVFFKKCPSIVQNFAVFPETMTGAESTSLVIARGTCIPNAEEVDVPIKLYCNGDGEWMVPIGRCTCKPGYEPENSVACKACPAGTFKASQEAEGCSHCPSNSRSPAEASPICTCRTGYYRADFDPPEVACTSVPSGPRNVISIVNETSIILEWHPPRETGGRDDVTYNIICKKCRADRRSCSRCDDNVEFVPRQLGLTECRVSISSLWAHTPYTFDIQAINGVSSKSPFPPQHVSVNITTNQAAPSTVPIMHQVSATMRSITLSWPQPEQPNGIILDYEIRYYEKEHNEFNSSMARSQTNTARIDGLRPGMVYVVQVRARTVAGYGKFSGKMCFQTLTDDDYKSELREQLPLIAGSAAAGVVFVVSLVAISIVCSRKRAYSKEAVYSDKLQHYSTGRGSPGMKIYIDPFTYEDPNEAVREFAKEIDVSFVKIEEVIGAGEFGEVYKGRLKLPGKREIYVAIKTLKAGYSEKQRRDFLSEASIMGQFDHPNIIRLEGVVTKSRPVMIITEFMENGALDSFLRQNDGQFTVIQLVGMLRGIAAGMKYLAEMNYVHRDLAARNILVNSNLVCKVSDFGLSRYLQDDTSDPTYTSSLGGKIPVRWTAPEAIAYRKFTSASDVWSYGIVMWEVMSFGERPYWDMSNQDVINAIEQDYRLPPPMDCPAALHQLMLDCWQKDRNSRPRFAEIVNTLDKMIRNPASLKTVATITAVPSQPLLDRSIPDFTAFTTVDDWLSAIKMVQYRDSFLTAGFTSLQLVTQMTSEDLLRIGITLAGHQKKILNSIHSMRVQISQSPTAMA
AURKA (human), sequence (O14965 whole entry, looked up): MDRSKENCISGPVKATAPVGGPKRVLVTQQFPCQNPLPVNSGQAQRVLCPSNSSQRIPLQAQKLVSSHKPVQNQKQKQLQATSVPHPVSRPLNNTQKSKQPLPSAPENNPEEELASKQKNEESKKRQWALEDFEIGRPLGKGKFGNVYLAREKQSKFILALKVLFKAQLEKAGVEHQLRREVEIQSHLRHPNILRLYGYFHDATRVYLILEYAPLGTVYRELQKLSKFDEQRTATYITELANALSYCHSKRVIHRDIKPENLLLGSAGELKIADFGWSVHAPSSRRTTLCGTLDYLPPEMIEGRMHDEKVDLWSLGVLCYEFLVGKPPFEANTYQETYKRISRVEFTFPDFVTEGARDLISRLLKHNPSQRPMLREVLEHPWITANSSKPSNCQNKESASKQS
OXSR1 (human), sequence (O95747 whole entry, looked up): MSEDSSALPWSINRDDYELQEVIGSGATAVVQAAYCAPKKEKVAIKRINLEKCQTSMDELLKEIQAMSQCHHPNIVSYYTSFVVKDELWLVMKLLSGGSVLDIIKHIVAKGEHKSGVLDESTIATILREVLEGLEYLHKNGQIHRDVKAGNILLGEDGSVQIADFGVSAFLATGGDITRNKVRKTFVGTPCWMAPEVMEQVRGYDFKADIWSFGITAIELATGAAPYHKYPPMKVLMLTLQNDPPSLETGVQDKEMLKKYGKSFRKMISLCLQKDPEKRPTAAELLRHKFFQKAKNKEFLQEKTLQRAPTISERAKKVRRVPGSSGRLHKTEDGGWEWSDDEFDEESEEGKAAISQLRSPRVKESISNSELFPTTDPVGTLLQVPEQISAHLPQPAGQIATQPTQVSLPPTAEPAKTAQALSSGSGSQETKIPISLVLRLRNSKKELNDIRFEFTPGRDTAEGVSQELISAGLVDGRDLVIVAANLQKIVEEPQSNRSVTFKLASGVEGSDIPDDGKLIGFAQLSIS

Compound `CC(C)(C)c1cc(C=C(C#N)C#N)cc(Br)c1O` has a residual activity (DCLK2 (human)) of 109%, a residual activity (SRPK3 (human)) of 79.4% and a residual activity (STK16 (human)) of 99.2%. The residual activity (CDK9 CCNK (human)) was 109%, the residual activity (PKN2 (human)) was 64.3% and the residual activity (BRSK1 (human)) was 94%. For the same compound, the residual activity (NEK11 (human)) was 87%, the residual activity (CDK5 CDK5R1 p25 (human)) was 98.2% and the residual activity (EPHA7 (human)) was 107%. It also gave a residual activity (SIK2 (human)) of 115%, a residual activity (CLK1 (human)) of 112% and a residual activity (ADRBK1 (human)) of 83.7%. It also gave a residual activity (MAPK1 (human)) of 91.3%, a residual activity (ABL2 (human)) of 57.1% and a residual activity (YES1 (human)) of 83%. The residual activity (AURKA (human)) was 89.8%, the residual activity (ACVR1 (human)) was 102% and the residual activity (MYLK2 (human)) was 99.3%. The residual activity (HIPK3 (human)) was 98.2%, the residual activity (OXSR1 (human)) was 98% and the residual activity (INSR (human)) was 105%. It also gave a residual activity (PDGFRB (human)) of 104%, a residual activity (BMX (human)) of 113% and a residual activity (STK17A (human)) of 92.3%. For the same compound, the residual activity (MAPK11 (human)) was 100%, the residual activity (MARK4 (human)) was 103% and the residual activity (DMPK (human)) was 96.9%. The residual activity (EPHB1 (human)) was 114%, the residual activity (PRKD2 (human)) was 108% and the residual activity (PRKD3 (human)) was 92.7%. The residual activity (STK4 (human)) was 90.5%, the residual activity [1] was 95.9% and the residual activity (CSNK1G3 (human)) was 85.8%. The residual activity (CDK5 CDK5R1 p35 (human)) was 102%, the residual activity (MAP3K9 (human)) was 90.2% and the residual activity (MET (human)) was 111%. For the same compound, the residual activity (FER (human)) was 100%, the residual activity (DYRK1B (human)) was 103% and the residual activity (SGK3 (human)) was 97.7%. It also gave a residual activity (IKBKB (human)) of 95.7%, a residual activity (NEK3 (human)) of 96.6% and a residual activity (EPHB3 (human)) of 107%.
`Ic1cccc(CSc2nnc(-c3ccncc3)o2)c1` gave a residual activity (DCLK2 (human)) of 100%, a residual activity (SRPK3 (human)) of 101% and a residual activity (STK16 (human)) of 110%. The residual activity (CDK9 CCNK (human)) was 105%, the residual activity (PKN2 (human)) was 100% and the residual activity (BRSK1 (human)) was 101%. It also gave a residual activity (NEK11 (human)) of 113%, a residual activity (CDK5 CDK5R1 p25 (human)) of 90.5% and a residual activity (EPHA7 (human)) of 100%. It also gave a residual activity (SIK2 (human)) of 100%, a residual activity (CLK1 (human)) of 99.8% and a residual activity (ADRBK1 (human)) of 99.9%. For the same compound, the residual activity (MAPK1 (human)) was 107%, the residual activity (ABL2 (human)) was 110% and the residual activity (YES1 (human)) was 95.7%. It also gave a residual activity (AURKA (human)) of 95.8%, a residual activity (ACVR1 (human)) of 97.4% and a residual activity (MYLK2 (human)) of 101%. The residual activity (HIPK3 (human)) was 99.1%, the residual activity (OXSR1 (human)) was 105% and the residual activity (INSR (human)) was 83.5%. For the same compound, the residual activity (PDGFRB (human)) was 97.7%, the residual activity (BMX (human)) was 86.6% and the residual activity (STK17A (human)) was 95.8%. For the same compound, the residual activity (MAPK11 (human)) was 96.9%, the residual activity (MARK4 (human)) was 86.8% and the residual activity (DMPK (human)) was 105%. The residual activity (EPHB1 (human)) was 101%, the residual activity (PRKD2 (human)) was 97.1% and the residual activity (PRKD3 (human)) was 98.4%. The residual activity (STK4 (human)) was 102%, the residual activity [1] was 109% and the residual activity (CSNK1G3 (human)) was 75.9%. For the same compound, the residual activity (CDK5 CDK5R1 p35 (human)) was 102%, the residual activity (MAP3K9 (human)) was 108% and the residual activity (MET (human)) was 88.7%. It also gave a residual activity (FER (human)) of 101%, a residual activity (DYRK1B (human)) of 96.7% and a residual activity (SGK3 (human)) of 98.5%. For the same compound, the residual activity (IKBKB (human)) was 89.3%, the residual activity (NEK3 (human)) was 86.9% and the residual activity (EPHB3 (human)) was 99.7%.
`COc1ccc(C(=O)Nc2sc3c(c2C(N)=O)CCCC3)cc1OC` gave a residual activity (DCLK2 (human)) of 98.6%, a residual activity (SRPK3 (human)) of 92% and a residual activity (STK16 (human)) of 106%. The residual activity (CDK9 CCNK (human)) was 85.7%, the residual activity (PKN2 (human)) was 98.5% and the residual activity (BRSK1 (human)) was 105%. For the same compound, the residual activity (NEK11 (human)) was 102%, the residual activity (CDK5 CDK5R1 p25 (human)) was 94.2% and the residual activity (EPHA7 (human)) was 96.2%. It also gave a residual activity (SIK2 (human)) of 102%, a residual activity (CLK1 (human)) of 96.9% and a residual activity (ADRBK1 (human)) of 96.8%. The residual activity (MAPK1 (human)) was 91.2%, the residual activity (ABL2 (human)) was 101% and the residual activity (YES1 (human)) was 88.3%. It also gave a residual activity (AURKA (human)) of 97.9%, a residual activity (ACVR1 (human)) of 159% and a residual activity (MYLK2 (human)) of 94.4%. For the same compound, the residual activity (HIPK3 (human)) was 105%, the residual activity (OXSR1 (human)) was 99.9% and the residual activity (INSR (human)) was 93.2%. For the same compound, the residual activity (PDGFRB (human)) was 90.9%, the residual activity (BMX (human)) was 89.8% and the residual activity (STK17A (human)) was 98.5%. The residual activity (MAPK11 (human)) was 104%, the residual activity (MARK4 (human)) was 86.5% and the residual activity (DMPK (human)) was 108%. For the same compound, the residual activity (EPHB1 (human)) was 95%, the residual activity (PRKD2 (human)) was 99.4% and the residual activity (PRKD3 (human)) was 103%. For the same compound, the residual activity (STK4 (human)) was 104%, the residual activity [1] was 98.2% and the residual activity (CSNK1G3 (human)) was 91.7%. The residual activity (CDK5 CDK5R1 p35 (human)) was 90.8%, the residual activity (MAP3K9 (human)) was 101% and the residual activity (MET (human)) was 82.8%. The residual activity (FER (human)) was 89.8%, the residual activity (DYRK1B (human)) was 104% and the residual activity (SGK3 (human)) was 103%. For the same compound, the residual activity (IKBKB (human)) was 87.6%, the residual activity (NEK3 (human)) was 95.8% and the residual activity (EPHB3 (human)) was 92.4%.
Compound `COc1cc2ncnc(Nc3ccc(OCc4ccccc4)cc3)c2cc1OC` has a residual activity (DCLK2 (human)) of 102%, a residual activity (SRPK3 (human)) of 92.8% and a residual activity (STK16 (human)) of 106%. The residual activity (CDK9 CCNK (human)) was 103%, the residual activity (PKN2 (human)) was 94.1% and the residual activity (BRSK1 (human)) was 103%. For the same compound, the residual activity (NEK11 (human)) was 90.4%, the residual activity (CDK5 CDK5R1 p25 (human)) was 97.8% and the residual activity (EPHA7 (human)) was 97%. For the same compound, the residual activity (SIK2 (human)) was 73.7%, the residual activity (CLK1 (human)) was 111% and the residual activity (ADRBK1 (human)) was 101%. The residual activity (MAPK1 (human)) was 100%, the residual activity (ABL2 (human)) was 101% and the residual activity (YES1 (human)) was 36%. The residual activity (AURKA (human)) was 91.3%, the residual activity (ACVR1 (human)) was 101% and the residual activity (MYLK2 (human)) was 97.5%. The residual activity (HIPK3 (human)) was 85.3%, the residual activity (OXSR1 (human)) was 110% and the residual activity (INSR (human)) was 100%. It also gave a residual activity (PDGFRB (human)) of 93%, a residual activity (BMX (human)) of 89.7% and a residual activity (STK17A (human)) of 99.6%. It also gave a residual activity (MAPK11 (human)) of 96.9%, a residual activity (MARK4 (human)) of 99.5% and a residual activity (DMPK (human)) of 104%. It also gave a residual activity (EPHB1 (human)) of 101%, a residual activity (PRKD2 (human)) of 101% and a residual activity (PRKD3 (human)) of 95.3%. The residual activity (STK4 (human)) was 101%, the residual activity [1] was 101% and the residual activity (CSNK1G3 (human)) was 92.9%. The residual activity (CDK5 CDK5R1 p35 (human)) was 103%, the residual activity (MAP3K9 (human)) was 96.5% and the residual activity (MET (human)) was 98.9%. It also gave a residual activity (FER (human)) of 90.8%, a residual activity (DYRK1B (human)) of 104% and a residual activity (SGK3 (human)) of 105%. For the same compound, the residual activity (IKBKB (human)) was 103%, the residual activity (NEK3 (human)) was 99.1% and the residual activity (EPHB3 (human)) was 90%.
